One experiment concerns the target Ba/F3_KRAS^G12D cells (Homo sapiens, UniProt P01116, G12D, cells depend on it). The experiment is described as follows: Ba/F3 KRAS^G12D cell proliferation assay (cell-titer Glo). It counts as cell-based. The settings on record: cell growth inhibition, treated with the compounds for 3 days, read-out: BaF3_KRAS^G12D IC50.
The target in experiment [1] is recombinant human KRAS^G12D protein (Homo sapiens, UniProt P01116, G12D). The experiment is described as follows: Temperature-dependent Fluorescence (TdF) KRAS^G12D protein binding assay. The settings on record: 6 μM KRAS^G12D Protein, 10 μM compound, Sypro Orange; Kd calculated from fluorescent shift. The procedure: The TdF assay was conducted in the 96-well-based real-time fluorescence plate reader (ABI 7500 or Roche LightCycler 480). Fluorescent dye Sypro Orange (Sigma) was used to monitor the protein folding-unfolding transition. Protein-compound binding was gauged by the shift in the unfolding transition temperature (ΔTm) acquired with and without compound. […] The sample plate was heated from 30° C. to 95° C. with a thermal ramping rate of […], taking a fluorescence reading every 0.4° C. using a CY3 channel matching the excitation and emission wavelengths of Sypro Orange (λ ex 470 nm; λ em 570 nm). Binding affinity (Kd value) was calculated based on the degree of fluorescent shift of the protein with and without compound.
recombinant human KRAS^G12D protein, sequence (P01116 1-188 isoform P01116-2 G12D): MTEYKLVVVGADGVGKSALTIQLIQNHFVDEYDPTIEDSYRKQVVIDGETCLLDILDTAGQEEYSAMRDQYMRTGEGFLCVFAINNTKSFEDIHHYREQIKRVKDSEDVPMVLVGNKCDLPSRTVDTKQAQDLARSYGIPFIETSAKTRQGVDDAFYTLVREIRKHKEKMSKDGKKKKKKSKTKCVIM

pKd: −log10 of the molar value.

Ba/F3_KRAS^G12D cells, sequence (P01116 whole entry G12D): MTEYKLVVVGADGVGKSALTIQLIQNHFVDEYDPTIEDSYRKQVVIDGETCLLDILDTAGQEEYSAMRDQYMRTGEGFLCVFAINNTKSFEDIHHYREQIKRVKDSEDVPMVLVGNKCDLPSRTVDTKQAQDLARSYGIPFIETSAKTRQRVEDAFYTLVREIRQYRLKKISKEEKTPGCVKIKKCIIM

With `Oc1cc(-c2ncc3c(N4CC5CCC(C4)N5)nc(OCC45CCCN4CCC5)cc3n2)c2c(Cl)cccc2c1Cl` [Compound 59], the GI50 at Ba/F3_KRAS^G12D cells is over 5 µM. Moreover, the pKd (as a rule, the Kd on a negative log10 scale, so that one unit is a factor of ten) in experiment [1] was under 5.30.
The like results for `Cc1cc(N)nc(-c2nc(C)c3c(N4CC5CCC(C4)N5)nc(OC[C@@]45CCCN4C[C@H](F)C5)nc3c2F)c1C1CC1` [Compound 102] were, in that order, over 5 µM and under 5.30.
On to `Cc1cc2c(N3CC4CCC(C3)N4)nc(OCC34CCCN3CCC4)nc2c(=O)n1-c1cccc2ccccc12` [Compound 107], for which the GI50 on Ba/F3_KRAS^G12D cells is 0.5 to 5 µM. Also, in experiment [1], the pKd is under 5.30.
For `CC(=O)N1CCN(c2nc(OC[C@@]34CCCN3C[C@H](F)C4)nc3c(F)c(-c4cc(O)cc5cccc(Cl)c45)ncc23)CC1` [Compound 74], the GI50 on Ba/F3_KRAS^G12D cells was over 5 µM. In experiment [1], the pKd is at least 6.30.
As for `Fc1c(-c2cccc3cccc(Cl)c23)ncc2c(N3CC4CCC(C3)N4)nc(OCC34CCCN3CCC4)nc12` [Compound 6], on Ba/F3_KRAS^G12D cells, the GI50 is under 0.5 µM. Also, the pKd in experiment [1] was at least 6.30.
As for `CCc1c(F)ccc2cc(O)cc(-c3nc(OC)c4c(N5CC6CCC(C5)N6)nc(OC[C@@]56CCCN5C[C@H](F)C6)nc4c3F)c12` [Compound 139], on Ba/F3_KRAS^G12D cells, the GI50 is under 0.5 µM. The negative logarithm of the Kd (pKd) in experiment [1] was at least 6.30.
The like results for `Oc1cc(-c2ncc3c(N4CC5CCC(C4)N5)nc(OC[C@@]45CCCN4C[C@H](F)C5)nc3c2F)c2c(Cl)cccc2c1` [Compound 36] were, in that order, under 0.5 µM and at least 6.30.
Turning to `Cc1nc(-c2cc(O)cc3cccc(C#N)c23)c(F)c2nc(OC[C@@]34CCCN3C[C@H](F)C4)nc(N3CC4CCC(C3)N4)c12` [Compound 115], on Ba/F3_KRAS^G12D cells, the GI50 is over 5 µM. Also, the negative-log Kd (pKd) in experiment [1] was at least 6.30.
The like results for `Oc1cc(-c2ncc3c(N4CC5CCC(C4)N5)nc(OC[C@@]45CCCN4C[C@H](F)C5)cc3n2)c2ccccc2c1` [Compound 62] were, in that order, 0.5 to 5 µM and under 5.30.
In the same order, the values of `CN1CCC[C@H]1Cn1c(=O)nc(N2C[C@H]3CC[C@@H](C2)N3)c2cc(F)c(-c3cccc4cccc(Cl)c34)nc21` [Compound 45] are over 5 µM and under 5.30.
In the same order, the values of `O=C(C(O)O)N1CCN(c2nc(OC[C@@]34CCCN3C[C@H](F)C4)nc3c(F)c(-c4cc(O)cc5cccc(Cl)c45)ncc23)CC1` [Compound 79] are over 5 µM and under 5.30.
On to `Cc1cc(N)nc(-c2nc(C)c3c(N4CC5CCC(C4)N5)nc(OC[C@@]45CCCN4C[C@H](F)C5)nc3c2F)c1C(F)(F)F` [Compound 105], for which, on Ba/F3_KRAS^G12D cells, the GI50 is over 5 µM. In addition, the pKd in experiment [1] is 5.30 to 6.30.
`Clc1cccc2cccc(-c3ncc4c(N5CCNCC5)nc(OCC56CCCN5CCC6)cc4n3)c12` [Compound 48]: at Ba/F3_KRAS^G12D cells, the GI50 was 0.5 to 5 µM. Also, in experiment [1], the pKd is under 5.30.
Take `Cc1nc(-c2cc(O)cc3ccc(F)c(Cl)c23)c(F)c2nc(OC[C@@]34CCCN3C[C@H](F)C4)nc(N3CC4CCC(C3)N4)c12` [Compound 126]: the GI50 at Ba/F3_KRAS^G12D cells is under 0.5 µM. Further, the negative logarithm of the Kd (pKd) in experiment [1] is at least 6.30.
In the same order, the values of `Oc1cc(-c2nc(Cl)c3c(N4CC5CCC(C4)N5)nc(OC[C@@]45CCCN4C[C@H](F)C5)nc3c2Cl)c2c(Cl)cccc2c1` [Compound 120] are under 0.5 µM and at least 6.30.
With `CCc1cccc2cc(O)cc(-c3nc(C)c4c(N5CC6CCC(C5)N6)nc(OC[C@@]56CCCN5C[C@H](F)C6)nc4c3C3CC3)c12` [Compound 122], the GI50 at Ba/F3_KRAS^G12D cells lay within 0.5 to 5 µM. Moreover, the pKd in experiment [1] is under 5.30.
As for `CCOc1nc(-c2cc(O)cc3ccc(F)c(Cl)c23)c(F)c2nc(OC[C@@]34CCCN3C[C@H](F)C4)nc(N3CC4CCC(C3)N4)c12` [Compound 173], the GI50 at Ba/F3_KRAS^G12D cells is under 0.5 µM. In experiment [1], the pKd was at least 6.30.
In the same order, the values of `CCc1cccc2cc(O)cc(-c3nc(CC)c4c(N5CC6CCC(C5)N6)nc(OC[C@@]56CCCN5C[C@H](F)C6)nc4c3F)c12` [Compound 118] are under 0.5 µM and at least 6.30.
On to `Oc1cc(-c2ncc3c(N4CCNCC4)nc(OC[C@@]45CCCN4C[C@H](F)C5)nc3c2F)c2c(Cl)cccc2c1` [Compound 72], for which the GI50 on Ba/F3_KRAS^G12D cells lay within 0.5 to 5 µM. For the same molecule, the pKd in experiment [1] was at least 6.30.
For the molecule `NC(=O)N1CCN(c2nc(OC[C@@]34CCCN3C[C@H](F)C4)nc3c(F)c(-c4cc(O)cc5cccc(Cl)c45)ncc23)CC1` [Compound 77], at Ba/F3_KRAS^G12D cells, the GI50 is over 5 µM. The pKd in experiment [1] is under 5.30.
The like results for `C[C@H]1CNCCN1c1nc(OCCN(C)C)cc2nc(-c3ccccc3F)c(F)cc12` [Compound 13] were, in that order, 0.5 to 5 µM and under 5.30.
Consider `C#Cc1c(F)ccc2cc(O)cc(-c3nc(OC(C)C)c4c(N5CC6CCC(C5)N6)nc(OC[C@@H]5CCCN5C)nc4c3F)c12` [Compound 195], for which, on Ba/F3_KRAS^G12D cells, the GI50 was under 0.5 µM. Moreover, the pKd in experiment [1] is at least 6.30.
With `C#Cc1c(F)ccc2cc(O)cc(-c3nc(Cl)c4c(N5CC6CCC(C5)N6)nc(OC[C@@]56CCCN5C[C@H](F)C6)nc4c3F)c12` [Compound 132], the GI50 at Ba/F3_KRAS^G12D cells was under 0.5 µM. Besides, the pKd in experiment [1] was at least 6.30.
The like results for `C#Cc1cccc2cc(O)cc(-c3nc(C)c4c(N5CC6CCC(C5)N6)nc(OC[C@@]56CCCN5C[C@H](F)C6)nc4c3F)c12` [Compound 103] were, in that order, under 0.5 µM and at least 6.30.
In the same order, the values of `C#Cc1c(F)ccc2cc(O)cc(-c3nc(OC)c4c(N5CC6CCC(C5)N6)nc(OC[C@]56CCCN5[C@@H](COC(=O)N(C)C)CC6)nc4c3F)c12` [Compound 176] are under 0.5 µM and at least 6.30.
Take `Oc1cc(-c2ncc3c(C4CC5CCC(C4)N5)nc(OC[C@@]45CCCN4C[C@H](F)C5)nc3c2F)c2c(Cl)cccc2c1` (stereo partly shown) [Compound 100]: the GI50 on Ba/F3_KRAS^G12D cells is over 5 µM. The pKd in experiment [1] was under 5.30.
The like results for `Cc1nc(-c2cc(O)cc3cccc(CCC#N)c23)c(F)c2nc(OC[C@@]34CCCN3C[C@H](F)C4)nc(N3CC4CCC(C3)N4)c12` [Compound 119] were, in that order, over 5 µM and 5.30 to 6.30.
In the same order, the values of `CN(C)CCCOc1nc(N2CC3CCC(C2)N3)c2cc(F)c(-c3cccc4cccc(Cl)c34)nc2n1` [Compound 15] are over 5 µM and under 5.30.
Regarding `Oc1cc(-c2ncc3c(C4CCNCC4)nc(OCC45CCCN4CCC5)nc3c2F)c2c(Cl)cccc2c1` [Compound 55], the GI50 at Ba/F3_KRAS^G12D cells is over 5 µM. The pKd in experiment [1] is under 5.30.
On to `CCc1c(F)ccc2cc(O)cc(-c3nc(C)c4c(N5CC6CCC(C5)N6)nc(OC[C@@]56CCCN5C[C@H](F)C6)nc4c3F)c12` [Compound 137], for which, on Ba/F3_KRAS^G12D cells, the GI50 is under 0.5 µM. In addition, the pKd in experiment [1] is at least 6.30.
With `CN(C)CCCOc1cc2nc(-c3cccc4ccccc34)ncc2c(N2CC3CCC(C2)N3)n1` [Compound 23], on Ba/F3_KRAS^G12D cells, the GI50 lay within 0.5 to 5 µM. In addition, the pKd in experiment [1] was under 5.30.
The like results for `CCc1cccc2cc(O)cc(-c3nc(Cl)c4c(N5CC6CCC(C5)N6)nc(OC[C@@]56CCCN5C[C@H](F)C6)nc4c3F)c12` [Compound 113] were, in that order, under 0.5 µM and at least 6.30.
The like results for `Cc1nc(-c2ccc(F)c3sc(N)nc23)c(F)c2nc(OC[C@@]34CCCN3C[C@H](F)C4)nc(N3CC4CCC(C3)N4)c12` [Compound 87] were, in that order, over 5 µM and 5.30 to 6.30.
The like results for `Oc1cc(-c2nc(OC[C@@]34CCCN3C[C@H](F)C4)c3ccc(N4CC5CCC(C4)N5)nc3c2Br)c2c(Cl)cccc2c1` [Compound 101] were, in that order, 0.5 to 5 µM and under 5.30.
For `Oc1cc(-c2ncc3c(N4CC5CCC(C4)N5)nc(OC[C@@]45CCCN4C[C@H](F)C5)c(Cl)c3n2)c2ccccc2c1` [Compound 63], the GI50 at Ba/F3_KRAS^G12D cells was in the range of 0.5 to 5 µM. Moreover, the pKd in experiment [1] is under 5.30.
The like results for `Clc1cccc2cccc(-c3cc4nc(N5CCNCC5)ccc4c(OCC45CCCN4CCC5)n3)c12` [Compound 82] were, in that order, under 0.5 µM and under 5.30.
In the same order, the values of `Clc1cccc2cccc(-c3ncc4c(N5CC6CCC(C5)N6)nc(OCC56CCCN5CCC6)cc4n3)c12` [Compound 46] are 0.5 to 5 µM and under 5.30.
The like results for `CCc1cccc2cc(O)cc(-c3cc4c(cn3)c(N3CC5CCC(C3)N5)nc(=O)n4C[C@@H]3CCCN3C)c12` [Compound 88] were, in that order, over 5 µM and under 5.30.
`Oc1cc(-c2ncc3c(N4CC5CCC(C4)N5)nc(OCC45CCCN4CCC5)cc3n2)c2c(Cl)cccc2c1` [Compound 51]: on Ba/F3_KRAS^G12D cells, the GI50 was over 5 µM. Besides, in experiment [1], the negative logarithm of the Kd (pKd) was under 5.30.
With `Oc1cc(-c2ncc3c(N4CC5CCC(C4)N5)nc(OCC45CCCN4CCC5)c(Cl)c3n2)c2c(Cl)cccc2c1` [Compound 65], at Ba/F3_KRAS^G12D cells, the GI50 was over 5 µM. Also, the negative-log Kd (pKd) in experiment [1] was 5.30 to 6.30.
Turning to `Cc1nc(-c2ccc(F)c3nc(N)sc23)c(F)c2nc(OC[C@@]34CCCN3C[C@H](F)C4)nc(N3CC4CCC(C3)N4)c12` [Compound 99], the GI50 at Ba/F3_KRAS^G12D cells lay in the range of 0.5 to 5 µM. For the same molecule, the pKd in experiment [1] was under 5.30.
In the case of `Oc1cc(-c2nc(Cl)c3c(N4CC5CCC(C4)N5)nc(OC[C@@]45CCCN4C[C@H](F)C5)nc3c2F)c2ccccc2c1` [Compound 95], the GI50 on Ba/F3_KRAS^G12D cells was under 0.5 µM. Moreover, in experiment [1], the pKd is at least 6.30.
The like results for `CN1CCC[C@H]1Cn1c(=O)nc(N2CCNCC2)c2cnc(-c3cccc4cccc(Cl)c34)c(F)c21` [Compound 35] were, in that order, over 5 µM and under 5.30.
In the same order, the values of `COc1c(F)ccc2cc(O)cc(-c3nc(OC)c4c(N5CC6CCC(C5)N6)nc(OC[C@@]56CCCN5C[C@H](F)C6)nc4c3F)c12` [Compound 147] are under 0.5 µM and at least 6.30.

These data come from patent US20230357233A1, “HETEROARYL COMPOUNDS, PREPARATION METHODS AND USES THEREOF” (INVENTISBIO CO., LTD., priority 2020, published 2023).
